Test results as given in PMC10065799, “High-throughput profiling of sequence recognition by tyrosine kinases and SH2 domains using bacterial peptide display” (eLife, 2023).

What was measured:
Test in all cases: pTyr-Var library bacterial peptide display kinase screen (enrichment scores)
c-Abl kinase domain = target: T1, c-Abl kinase domain (Mus musculus, UniProt P00520); assay type: biochemical;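 further: log2 fold change in enrichment of variant over reference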
T1 sequence (P00520 242-493 limits assumed): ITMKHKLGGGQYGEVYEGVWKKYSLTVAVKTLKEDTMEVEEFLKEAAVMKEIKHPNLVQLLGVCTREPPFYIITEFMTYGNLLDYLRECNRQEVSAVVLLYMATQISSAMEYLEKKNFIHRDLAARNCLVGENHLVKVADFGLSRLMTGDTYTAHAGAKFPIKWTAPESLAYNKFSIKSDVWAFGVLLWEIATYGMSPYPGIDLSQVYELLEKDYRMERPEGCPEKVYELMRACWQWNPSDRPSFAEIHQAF

c-Src kinase domain = c-Src kinase domain (Homo sapiens, UniProt P12931); assay type: biochemical; conditions: sheet "Src";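 further: log2 fold change in enrichment of variant over reference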
EPHB2 kinase domain = assay type: biochemical, human; conditions: sheet EPHB2; effect of variant peptide relative to its reference peptide in the pTyr-Var library screen (enrichment scores)
EPHB1 kinase domain = assay type: biochemical, human; conditions: for Screen: sheet EPHB1, effect of the variant peptide relative to its reference peptide in the pTyr-Var library screen (enrichment scores)
Fer kinase domain = assay type: biochemical, mouse; conditions: sheet "Fer"
[1] = fig5-data2, sheet "Abl", Screen for the variant/reference peptide pair, pTyr-Var library
[2] = effect of the variant peptide relative to its reference peptide in the pTyr-Var library screen
[3] = variant peptide versus its reference peptide in the pTyr-Var library screen
[4] = value of the variant peptide against its reference peptide in the pTyr-Var library screen with Fer
[5] = variant peptide relative to its reference peptide, pTyr-Var library screen enrichment
[6] = sheet "Abl", effect of variant peptide relative to its reference peptide in pTyr-Var library screen (enrichment)

**Q.** How did the Screen (c-Abl kinase domain; [1]) turn out when VIKDKYPKAHF [APTX_Y209_R213H_YF] was run?
**A.** Its Screen is 0.3442.

**Q.** Which Screen (c-Src kinase domain; [2]) does the source give for KCLAVYQAGAR [APOE_Y180_R176C] here?
**A.** Its Screen is 2.645.

**Q.** How did the Screen (EPHB2 kinase domain) turn out when LNCDRYSAGLL [PDE6A_Y275_V277A] was run?
**A.** The Screen was -1.197.

**Q.** STLEVYRCHPP [IL21R_Y317_S318R] was tested. Which Screen (c-Src kinase domain; [2]) did it give?
**A.** Its Screen is -1.75.

**Q.** How did the Screen (c-Abl kinase domain; [1]) turn out when IWGKKYPTCNS [PTPRZ1_Y53_N48I] was run?
**A.** The Screen was 0.4141.

**Q.** With TSQSQYSSFRE [CCDC170_Y323_F324S] as the sequence, how does the Screen (c-Abl kinase domain; [1]) read?
**A.** Its Screen is 2.786.

**Q.** What about the Screen (c-Src kinase domain; [2]) of the same sequence?
**A.** The Screen was -1.483.

**Q.** For LAIELYVVVCK [RHO_Y136_R135L], which Screen (EPHB1 kinase domain) is on record?
**A.** Its Screen is 1.06.

**Q.** What about the Screen (EPHB2 kinase domain) of the same sequence?
**A.** The Screen was 0.6623.

**Q.** How did the Screen (EPHB1 kinase domain) turn out when DGQVNYEELVQ [CALM1_Y139_F142L] was run?
**A.** The Screen was -0.5322.

**Q.** EPAVLYNLKER [MYH7_Y103_D107E] was tested. Which Screen (c-Abl kinase domain; [1]) did it give?
**A.** Its Screen is -0.8606.

**Q.** Which Screen (c-Src kinase domain; [3]) does the source give for KSDVMYTDWKK [ORM1_Y175_V174M] here?
**A.** Its Screen is -1.392.

**Q.** Which Screen (c-Src kinase domain; [2]) does the source give for LLTALYFISWG [KCNH2_Y780_R784W] here?
**A.** Its Screen is 0.3693.

**Q.** For PLQHVYKIGGI [EEF1A2_Y254_D252H], which Screen (EPHB1 kinase domain) is on record?
**A.** The Screen was -0.7167.

**Q.** And the Screen (c-Src kinase domain; [2])?
**A.** Its Screen is -2.182.

**Q.** Which results are given for LFEDRYLLGPS [ASS1_Y87_T91P_YF]?
**A.** Screen (EPHB1 kinase domain): -1.226; Screen (EPHB2 kinase domain): -0.4556

**Q.** Which Screen (Fer kinase domain; [4]) does the source give for VDSAHYQLLET [DTX3L_Y385_K386Q] here?
**A.** Its Screen is 3.227.

**Q.** LEIETYRRLRD [KRT12_Y429_L433R] was tested. Which Screen (c-Abl kinase domain; [1]) did it give?
**A.** The Screen was 0.7498.

**Q.** Which Screen (Fer kinase domain; [5]) does the source give for KFDLMYAKRAF [TUBA3E_Y399_W402R] here?
**A.** The Screen was -3.735.

**Q.** And the Screen (c-Src kinase domain; [3])?
**A.** The Screen was -2.285.

**Q.** Which results are given for RQNQEYEILMD [KRT39_Y379_L383M]?
**A.** Screen (EPHB1 kinase domain): 0.4118; Screen (EPHB2 kinase domain): 0.3975

**Q.** How did the Screen (c-Src kinase domain; [2]) turn out when LERFIYNPEEF [HLA-DPB1_Y59_R61P_YF] was run?
**A.** The Screen was 0.2405.

**Q.** How did the Screen (c-Abl kinase domain; [6]) turn out when CDFKKYGKGLR [ZNF445_Y433_Y428C_YF] was run?
**A.** Its Screen is 1.206.

**Q.** Which Screen (c-Abl kinase domain; [1]) does the source give for DPHECYAKVFN [ALB_Y394_D399N] here?
**A.** The Screen was -0.4574.

**Q.** With FTNELYMMMRD [FGFR1_Y730_C725Y_YF] as the sequence, how does the Screen (EPHB1 kinase domain) read?
**A.** The Screen was 0.7713.

**Q.** And the Screen (EPHB2 kinase domain)?
**A.** Its Screen is 0.5582.

**Q.** How did the Screen (Fer kinase domain; [4]) turn out when GHLFAYDWIRI [BEST1_Y227_S231R_YF] was run?
**A.** The Screen was -0.2857.

**Q.** For PLDAEYFTLQI [TP53_Y327_G325A], which Screen (c-Src kinase domain; [3]) is on record?
**A.** Its Screen is 0.1358.

**Q.** MSGDVYSTDFF [NTRK2_Y702_R699G_YF] was tested. Which Screen (c-Src kinase domain; [3]) did it give?
**A.** The Screen was 0.7528.

**Q.** For RLLRGYNQSAF [HLA-C_Y137_D138N_YF], which Screen (c-Abl kinase domain; [1]) is on record?
**A.** Its Screen is 1.149.

**Q.** For LVIIKYLPEWT [PSEN1_Y240_F237I], which Screen (EPHB1 kinase domain) is on record?
**A.** The Screen was 1.338.

**Q.** And the Screen (EPHB2 kinase domain)?
**A.** The Screen was 1.457.

**Q.** For IVLRSYPASDH [NID2_Y449_G453D], which Screen (c-Abl kinase domain; [1]) is on record?
**A.** Its Screen is 0.09357.

**Q.** TLPAFYMENFS [GLB1_Y552_G554E] was tested. Which Screen (c-Abl kinase domain; [1]) did it give?
**A.** The Screen was 0.2401.

**Q.** How did the Screen (Fer kinase domain; [4]) turn out when IGEVVYQWAVM [GRIN2A_Y502_R504W] was run?
**A.** Its Screen is 2.434.

**Q.** And the Screen (c-Src kinase domain; [2])?
**A.** The Screen was -0.09777.

**Q.** Which results are given for RRIHSYRCHLW [VHL_Y112_G114C]?
**A.** Screen (variant relative to reference peptide, measured in the pTyr-Var library screen) (EPHB1 kinase domain; sheet "EPHB1", variant seq vs reference seq, bacterial peptide display enrichment): -1.413; Screen (c-Src kinase domain; [3]): -2.304

**Q.** For LKLKAYRFSIS [LCT_Y974_V971L], which Screen (c-Src kinase domain; [2]) is on record?
**A.** Its Screen is 1.678.

**Q.** With TDIVAYSGWVQ [SPTBN2_Y477_R480W] as the sequence, how does the Screen (EPHB2 kinase domain) read?
**A.** The Screen was -2.35.

**Q.** How did the Screen (c-Abl kinase domain; [1]) turn out when GITTGYLVLKE [DNMT3B_Y588_A585T] was run?
**A.** The Screen was 1.643.

**Q.** KEAQVYQAFRL [SUCLG2_Y343_K347R] was tested. Which Screen (Fer kinase domain; [5]) did it give?
**A.** The Screen was 0.58.

**Q.** What about the Screen (c-Src kinase domain; [3]) of the same sequence?
**A.** The Screen was 0.6304.

**Q.** For RLDGEYFTLQI [TP53_Y327_P322R], which Screen (c-Abl kinase domain; [6]) is on record?
**A.** Its Screen is 0.2276.

**Q.** What about the Screen (c-Src kinase domain; [3]) of the same sequence?
**A.** The Screen was -0.8354.

**Q.** IIEDPYFGNDF [ACP1_Y132_S137F_YF] was tested. Which Screen (c-Src kinase domain; [2]) did it give?
**A.** Its Screen is 0.7844.

**Q.** Which Screen (c-Abl kinase domain; [1]) does the source give for KAIMTYVFSFF [ACTN4_Y260_S262F_YF] here?
**A.** Its Screen is -1.213.

**Q.** What does the source list for VGTKWYMAPEV [ACVRL1_Y375_R374W]?
**A.** Screen (EPHB1 kinase domain): 2.34; Screen (EPHB2 kinase domain): 2.182

**Q.** With HSKGIYFVQLE [MGAT4B_Y262_Q257H_YF] as the sequence, how does the Screen (c-Abl kinase domain; [1]) read?
**A.** The Screen was -0.4742.

**Q.** And the Screen (EPHB2 kinase domain)?
**A.** Its Screen is -0.5096.

**Q.** And the Screen (c-Src kinase domain; [2])?
**A.** Its Screen is 0.1036.

**Q.** How did the Screen (c-Src kinase domain; [3]) turn out when LWQTIYNLEAE [TNNT2_Y251_S249T] was run?
**A.** Its Screen is 0.4505.

**Q.** Which Screen (c-Abl kinase domain; [1]) does the source give for ERIELYELDKK [PMM2_Y145_F144L] here?
**A.** Its Screen is 0.1245.

**Q.** Which Screen (c-Src kinase domain; [3]) does the source give for HFVFFYSFLLK [PTEN_Y178_R173H_YF] here?
**A.** Its Screen is 0.679.

**Q.** Which Screen (EPHB2 kinase domain) does the source give for AEARMYGVLPW [PLP1_Y207_D203E] here?
**A.** The Screen was -1.308.

**Q.** And the Screen (c-Src kinase domain; [3])?
**A.** Its Screen is -0.462.

**Q.** For IFSGIYFKPES [L2HGDH_Y102_H98Y_YF], which Screen (EPHB1 kinase domain) is on record?
**A.** The Screen was 0.7253.

**Q.** And the Screen (c-Src kinase domain; [2])?
**A.** The Screen was 0.7627.

**Q.** Which Screen (c-Abl kinase domain; [1]) does the source give for KNEVLYDEENH [ARFGEF1_Y314_G316E] here?
**A.** The Screen was -0.7157.

**Q.** For EPFEVYRIVPE [IRF8_Y110_K108E_YF], which Screen (c-Src kinase domain; [2]) is on record?
**A.** The Screen was 2.655.

**Q.** Which Screen (c-Src kinase domain; [2]) does the source give for PQAVTYATVKH [LILRB4_Y360_K362T] here?
**A.** The Screen was 2.009.

**Q.** For IKKLIYVFLVI [JAGN1_Y42_H44Y_YF], which Screen (c-Abl kinase domain; [1]) is on record?
**A.** The Screen was 0.0101.

**Q.** Which Screen (c-Abl kinase domain; [1]) does the source give for EDAHHYLCKEV [JAK2_Y382_A377E] here?
**A.** Its Screen is -1.246.

**Q.** What does the source list for PDSVDYPKKGF [CTSK_Y121_R122P_YF]?
**A.** Screen (c-Abl kinase domain; [1]): -1.054; Screen (Fer kinase domain; [4]): 0.978; Screen (c-Src kinase domain; [2]): 2.065

**Q.** How did the Screen (EPHB1 kinase domain) turn out when RHPEVYHHLGI [NVL_Y290_V295I] was run?
**A.** The Screen was 0.1225.

**Q.** KICDWYQRQRP [KRT14_Y151_R148C] was tested. Which Screen (c-Abl kinase domain; [1]) did it give?
**A.** Its Screen is 1.628.
